From patent US12459951B2, “Compounds that interact with RAS superfamily proteins for treatment of cancers, inflammatory diseases, rasopathies, and fibrotic disease” (SHY Therapeutics, LLC, priority 2022, dated 2025)

Assays:
IL6 = assay: IL-6 Quantification Assay (ELISA), LPS-stimulated RAW 264.7; type: cell-based; parameters: inhibition: dose or concentration left out as unconfirmed; details: Mus musculus, RAW264.7; read-out: IL-6: % inh.
Rac-1 = target: T1, Rac-1 (Homo sapiens, UniProt P63000); assay: Ras GTP Binding Domain Inhibition Assay (Ras Superfamily Assay); details: read-out: Rac-1: % inh.
T1 construct: made in house
How it was run: (§1)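 His-tagged GTPases immobilised on nickel-coated plates, pre-incubated with compound (20 μM single point, or serial dilution for IC50) 3 h at room temperature, with or without 10-30 μg/mL Sos (residues 556-1049) in the final hour. Bound Cy3- or Cy5-GTP (100 nM, 45 min) measured by fluorescence after washing.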

KRas wild type = assay: as above; details: 20 μM compound; for KRas wild type + SOS: % inh.: with SOS; for KRas wild type: % inh.: without SOS
How it was run: as §1

KRas Q61H mutant = assay: as above; details: 20 μM compound; for KRas Q61H mutant + SOS: % inh.: with SOS; for KRas Q61H mutant: % inh.: without SOS
How it was run: as §1

KRas G12D mutant = assay: as above; details: 20 μM compound; for KRas G12D mutant + SOS: % inh.: with SOS; for KRas G12D mutant: % inh.: without SOS
How it was run: as §1

KRas G12C mutant = assay: as above; details: 20 μM compound; for KRas G12C mutant + SOS: % inh.: with SOS; for KRas G12C mutant: % inh.: without SOS
How it was run: as §1

Rho-A = target: T2, Rho-A (Homo sapiens, UniProt P61586); assay: as above; details: read-out: Rho-A: % inh..
T2 construct: made in house
How it was run: as §1

TNF-alpha = TNF-alpha Quantification Assay (ELISA), LPS-stimulated RAW 264.7; type: cell-based; details: Mus musculus, RAW264.7; at 10 μM; read-out: TNFα: % inh.
Akt phosphorylation = assay: Akt Phosphorylation Assay (western blot), Panc-1; type: cell-based, human; details: at 10 μM, * = activation
How it was run: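 Panc-1 (KRas G12D) cells were treated with compound at 10 μM final (0.3% DMSO) for 6 h at 37 °C, or with serial dilutions for IC50. Cells were either serum-starved overnight in 0.5% FBS and then stimulated with 1.5 ng/ml EGF for 15 min, or kept in 10% FBS without stimulation. Akt Ser473 phosphorylation in lysates was read by western blot.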

T2 sequence (P61586 whole entry): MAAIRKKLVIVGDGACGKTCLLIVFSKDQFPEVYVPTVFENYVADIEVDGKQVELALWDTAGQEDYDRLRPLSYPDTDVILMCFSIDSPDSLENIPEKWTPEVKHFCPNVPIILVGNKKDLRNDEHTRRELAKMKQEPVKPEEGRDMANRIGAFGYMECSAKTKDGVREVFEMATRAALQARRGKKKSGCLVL

Compound	inhibition (IL6) [%]	inhibition at 20 µM (Rac-1) [%]	KRas wild type + SOS: % inh. (KRas wild type)	KRas wild type: % inh. (KRas wild type)	KRas Q61H mutant + SOS: % inh. (KRas Q61H mutant)	KRas Q61H mutant: % inh. (KRas Q61H mutant)	KRas G12D mutant + SOS: % inh. (KRas G12D mutant)	KRas G12D mutant: % inh. (KRas G12D mutant)	KRas G12C mutant + SOS: % inh. (KRas G12C mutant)	KRas G12C mutant: % inh. (KRas G12C mutant)	inhibition at 20 µM (Rho-A) [%]	inhibition at 10 µM (TNF-alpha) [%]	% inh of Akt phosphorylation in Panc-1 (Akt phosphorylation)
Cc1c(-c2ccn(C(C)C)n2)cn2nc(-c3nccn3C)nc(Nc3cc(C4CC4)no3)c12 [Compound 69, 3-Cyclopropyl-N-(6-(1-isopropyl-1H-pyrazol-3-yl)-5-methyl-2-(1-methyl-1H-imidazol-2-yl)pyrrolo[2,1-f][1,2,4]triazin-4-yl)isoxazol-5-amine]	50 to 74	1 to 25	0 (0 = 0% inhibition)	A (A = 1-25% inhibition)	0 (0 = 0% inhibition)	A (A = 1-25% inhibition)	A (A = 1-25% inhibition)	A (A = 1-25% inhibition)	0 (0 = 0% inhibition)	A (A = 1-25% inhibition)	1 to 25	1 to 24	D* (85-100% activation)
COC[C@@H]1CC[C@@H]1CNc1nc(-c2ccccn2)nn2cc(-c3ccn(C(C)C)n3)c(-c3ccccc3)c12 (racemic) [Compound 26, rac 6-(1-Isopropyl-1H-pyrazol-3-yl)-N-(((1S,2R)-2-(methoxymethyl)cyclobutyl)methyl)-5-phenyl-2-(pyridin-2-yl)pyrrolo[2,1-f][1,2,4]triazin-4-amine]	50 to 74	0	0 (0 = 0% inhibition)	A (A = 1-25% inhibition)	A (A = 1-25% inhibition)	A (A = 1-25% inhibition)	A (A = 1-25% inhibition)	0 (0 = 0% inhibition)	A (A = 1-25% inhibition)	0 (0 = 0% inhibition)	1 to 25	1 to 24	C (50-84% inhibition)
Cc1c(-c2ccn(C(C)C)n2)cn2nc(-c3nccn3C)nc(Nc3ccncn3)c12 [Compound 55, 6-(1-Isopropyl-1H-pyrazol-3-yl)-5-methyl-2-(1-methyl-1H-imidazol-2-yl)-N-(pyrimidin-4-yl)pyrrolo[2,1-f][1,2,4]triazin-4-amine]	1 to 24	76 to 100	C (C = 50-75% inhibition)	D (D = 76-100% inhibition)	D (D = 76-100% inhibition)	D (D = 76-100% inhibition)	C (C = 50-75% inhibition)	D (D = 76-100% inhibition)	C (C = 50-75% inhibition)	B (B = 26-49% inhibition)	76 to 100	1 to 24	A* (1-25% activation)
COc1cc(Nc2nc(-c3nccn3C)nn3cc(-c4cccnc4)c(C)c23)ncn1 [Compound 48, N-(6-Methoxypyrimidin-4-yl)-5-methyl-2-(1-methyl-1H-imidazol-2-yl)-6-(pyridin-3-yl)pyrrolo[2,1-f][1,2,4]triazin-4-amine]	1 to 24	50 to 75	B (B = 26-49% inhibition)	C (C = 50-75% inhibition)	D (D = 76-100% inhibition)	D (D = 76-100% inhibition)	C (C = 50-75% inhibition)	C (C = 50-75% inhibition)	A (A = 1-25% inhibition)	C (C = 50-75% inhibition)	76 to 100	1 to 24	D* (85-100% activation)
COc1cc(Nc2nc(-c3nccn3C)nn3cc(-c4cccc(OC)n4)c(C)c23)ncn1 [Compound 65, 6-(6-Methoxypyridin-2-yl)-N-(6-methoxypyrimidin-4-yl)-5-methyl-2-(1-methyl-1H-imidazol-2-yl)pyrrolo[2,1-f][1,2,4]triazin-4-amine]	1 to 24	76 to 100	B (B = 26-49% inhibition)	C (C = 50-75% inhibition)	C (C = 50-75% inhibition)	C (C = 50-75% inhibition)	C (C = 50-75% inhibition)	C (C = 50-75% inhibition)	A (A = 1-25% inhibition)	C (C = 50-75% inhibition)	76 to 100	1 to 24	D* (85-100% activation)
Cc1c(-c2ccn(C(C)C)n2)cn2nc(-c3nccn3C)nc(Nc3nnco3)c12 [Compound 59, N-(6-(1-Isopropyl-1H-pyrazol-3-yl)-5-methyl-2-(1-methyl-1H-imidazol-2-yl)pyrrolo[2,1-f][1,2,4]triazin-4-yl)-1,3,4-oxadiazol-2-amine]	25 to 49	76 to 100	C (C = 50-75% inhibition)	C (C = 50-75% inhibition)	D (D = 76-100% inhibition)	D (D = 76-100% inhibition)	C (C = 50-75% inhibition)	D (D = 76-100% inhibition)	B (B = 26-49% inhibition)	C (C = 50-75% inhibition)	76 to 100	1 to 24	C* (46-84% activation)
CCn1ccc(-c2cn3nc(-c4nccn4C)nc(Nc4cc(OC)ncn4)c3c2C)n1 [Compound 64, 6-(1-Ethyl-1H-pyrazol-3-yl)-N-(6-methoxypyrimidin-4-yl)-5-methyl-2-(1-methyl-1H-imidazol-2-yl)pyrrolo[2,1-f][1,2,4]triazin-4-amine]	1 to 24	76 to 100	D (D = 76-100% inhibition)	D (D = 76-100% inhibition)	D (D = 76-100% inhibition)	D (D = 76-100% inhibition)	D (D = 76-100% inhibition)	D (D = 76-100% inhibition)	C (C = 50-75% inhibition)	D (D = 76-100% inhibition)	76 to 100	0	D* (85-100% activation)
COc1cc(-c2cn3nc(-c4nccn4C)nc(Nc4cc(OC)ncn4)c3c2C)ccn1 [Compound 50, 6-(2-Methoxypyridin-4-yl)-N-(6-methoxypyrimidin-4-yl)-5-methyl-2-(1-methyl-1H-imidazol-2-yl)pyrrolo[2,1-f][1,2,4]triazin-4-amine]	1 to 24	26 to 49	B (B = 26-49% inhibition)	C (C = 50-75% inhibition)	D (D = 76-100% inhibition)	D (D = 76-100% inhibition)	C (C = 50-75% inhibition)	C (C = 50-75% inhibition)	A (A = 1-25% inhibition)	A (A = 1-25% inhibition)	50 to 75	0	D* (85-100% activation)
